# Data taken from patent US6410575B1, “Viral treatment” (The Procter & Gamble Company, priority 1999, dated 2002).
# Several values for one entry are separate records, joined by “and”; a condition that tells them apart may be missing. Identical values can stand only once.
# Columns and labels:
# HEPG2 2.2.15 = test: Toxicity values in the hepatitis B test; format: cell-based; set-up: Toxicity Values, sample / Toxicity Values, mean: unit not given here
# HIV-1 protease = molecular target: T1, HIV-1 protease (Human immunodeficiency virus type 1 group M subtype B, UniProt P04585); test: Protease inhibition assay (fluorometric); format: biochemical
# T1 construct: use of the fluorometric, HIV-1 protease assay; purchased Bachem
# Description: Protease inhibition is evaluated using a fluorometric method. Enzyme (Bachem) is diluted to 116 μgm/ml in 50 mM NaOAC, 5 mM DTT, 2 mM EDTA, 10% glycerol (pH 5.0) and stored as 10 μl samples at −20° C. HIV protease substrates 1 (Molecular Probes) are diluted to a working concentration of 0.32 nmoles/μl. Enzyme (20 μl) and drug (20 μl) are added to each well of a microtiter plate as appropriate. Positive and negative controls are evaluated in parallel. Fluorescene is quantitated on Labsystems Fluroskan II using 355 nm/460 nm at 37° C. at time zero and at 30 minute intervals for 2 hours. In instances where auto-fluorescence precludes use of the fluorometric, HIV-1 protease assay or confirmation of a result is required, an HPLC based protease assay can be employed.
# The mechanism of action of the (5-aryl-1,2,4-thiadiazol)-3-yl thiourea derivatives or (5-aryl-1,2,4-thiadizol)-3-yl urea derivatives is not known.
# Cryptococcus neoformans = test: Anti-fungal activity, MFC (NCCLS M-27A based); format: cell-based
# Description: It was active against Cryptococcus neoformans and Curvularia lunata. The cidal activity for the C. neoformans is high enough that it is clear […] against this yeast. This test was conducted using a method based upon NCCLS reference method M-27A published in 1997. Solvent, medium and growth controls were set-up with the tests. Once these were read to validate the test performance, the QC fungi were read to insure they had expected results. These steps validated the test system. DMSO was used as a drug-chemical solvent. […] The 90% cut-off is necessary for azoles, which are static and not cidal. The […] or cidal level, was determined by sub-culturing a sample from each tube showing no growth.
structure (smiles),measurement,setting,value
NC(=S)Nc1nsc(-c2ccccc2)n1,% cell control,HEPG2 2.2.15; 0.64 μg/ml,92.3%
same,"Toxicity Values, mean",HEPG2 2.2.15; 0.64 μg/ml,1.021
same,"Toxicity Values, sample",HEPG2 2.2.15; 0.64 μg/ml,0.985 and 0.999 and 1.079
same,% cell control,HEPG2 2.2.15; 2 μg/ml,83.0%
same,"Toxicity Values, mean",HEPG2 2.2.15; 2 μg/ml,0.919
same,"Toxicity Values, sample",HEPG2 2.2.15; 2 μg/ml,0.881 and 0.959 and 0.916
same,% cell control,HEPG2 2.2.15; 6.4 μg/ml,95.6%
same,"Toxicity Values, mean",HEPG2 2.2.15; 6.4 μg/ml,1.058
same,"Toxicity Values, sample",HEPG2 2.2.15; 6.4 μg/ml,0.940 and 1.218 and 1.015
same,% cell control,HEPG2 2.2.15; 20 μg/ml,84.2%
same,"Toxicity Values, mean",HEPG2 2.2.15; 20 μg/ml,0.932
same,"Toxicity Values, sample",HEPG2 2.2.15; 20 μg/ml,0.966 and 0.921 and 0.909
same,% cell control,HEPG2 2.2.15; 64 μg/ml,89.5%
same,"Toxicity Values, mean",HEPG2 2.2.15; 64 μg/ml,0.991
same,"Toxicity Values, sample",HEPG2 2.2.15; 64 μg/ml,0.962 and 1.037 and 0.973
same,% cell control,HEPG2 2.2.15; 200 μg/ml,76.7%
same,"Toxicity Values, mean",HEPG2 2.2.15; 200 μg/ml,0.849
same,"Toxicity Values, sample",HEPG2 2.2.15; 200 μg/ml,0.818 and 0.928 and 0.800
same,TC50,HEPG2 2.2.15; HEPG2 2.2.15,> 200 mg/L
same,TC50,"HEPG2 2.2.15; HEPG2 2.2.15, replicate experiment",> 200 mg/L
same,EC50,HIV-1 protease,> 423 µM
same,activity as a protease inhibitor,HIV-1 protease,did not show activity
same,remaining activity at 0.001 µM,"HIV-1 protease; 1 nM, read-out: Protease inhibition, % no drug control",100%
same,remaining activity at 0.01 µM,"HIV-1 protease; 10 nM, read-out: Protease inhibition, % no drug control",103%
same,remaining activity at 0.1 µM,"HIV-1 protease; 100 nM, read-out: Protease inhibition, % no drug control",99.9%
same,remaining activity at 1 µM,"HIV-1 protease; read-out: Protease inhibition, % no drug control",88%
same,anti-fungal activity in vitro,Cryptococcus neoformans,active
same,MFC,"Cryptococcus neoformans; cidal level, read-out: MFC",32 mg/L
